Assay results published in article PMC6934871, “High resolution structural and functional analysis of a hemopexin motif protein from Dolichos” (Scientific Reports, 2019).

Molecular target: DC25
Assay: SPR (Biacore T200, DC25 immobilized on CM5, […] Langmuir fit); also inhibits peroxidase activity of purified DC25
Format: binding, Lablab purpureus

- Kd: 1210 nM
SMILES: O=S(=O)(O)c1ccc(-c2c3nc(c(-c4ccc(S(=O)(=O)O)cc4)c4ccc([nH]4)c(-c4ccc(S(=O)(=O)O)cc4)c4nc(c(-c5ccc(S(=O)(=O)O)cc5)c5ccc2[nH]5)C=C4)C=C3)cc1 [TPPS4]
